In patent US20070172471A1, “Method for identifying an anti- streptococcal agent and its use for treating streptococcal infections” (Hansa Medical AB, priority 2003, published 2007):
Peptide text beside a SMILES is read from it.

T1: fibrinogen (Homo sapiens, UniProt P02671+P02675+P02679)
T1 sequence (P02671 20-644 isoform P02671-2 limits assumed): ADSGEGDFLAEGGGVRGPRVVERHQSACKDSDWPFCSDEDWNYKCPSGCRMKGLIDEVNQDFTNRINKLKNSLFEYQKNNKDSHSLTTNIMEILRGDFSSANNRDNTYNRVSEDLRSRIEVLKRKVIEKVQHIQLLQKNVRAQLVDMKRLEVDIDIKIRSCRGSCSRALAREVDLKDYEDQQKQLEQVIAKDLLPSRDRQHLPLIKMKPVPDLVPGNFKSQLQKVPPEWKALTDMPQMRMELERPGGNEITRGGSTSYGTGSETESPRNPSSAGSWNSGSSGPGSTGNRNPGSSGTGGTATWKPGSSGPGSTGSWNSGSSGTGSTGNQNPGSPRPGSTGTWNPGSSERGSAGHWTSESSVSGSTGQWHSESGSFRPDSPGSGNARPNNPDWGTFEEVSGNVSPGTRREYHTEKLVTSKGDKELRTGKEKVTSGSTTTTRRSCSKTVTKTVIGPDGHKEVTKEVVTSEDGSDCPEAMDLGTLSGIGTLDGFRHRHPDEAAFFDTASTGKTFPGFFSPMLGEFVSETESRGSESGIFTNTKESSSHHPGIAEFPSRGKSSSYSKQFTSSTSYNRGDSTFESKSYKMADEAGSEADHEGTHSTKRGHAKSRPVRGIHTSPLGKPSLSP
T1 sequence (P02675 31-491): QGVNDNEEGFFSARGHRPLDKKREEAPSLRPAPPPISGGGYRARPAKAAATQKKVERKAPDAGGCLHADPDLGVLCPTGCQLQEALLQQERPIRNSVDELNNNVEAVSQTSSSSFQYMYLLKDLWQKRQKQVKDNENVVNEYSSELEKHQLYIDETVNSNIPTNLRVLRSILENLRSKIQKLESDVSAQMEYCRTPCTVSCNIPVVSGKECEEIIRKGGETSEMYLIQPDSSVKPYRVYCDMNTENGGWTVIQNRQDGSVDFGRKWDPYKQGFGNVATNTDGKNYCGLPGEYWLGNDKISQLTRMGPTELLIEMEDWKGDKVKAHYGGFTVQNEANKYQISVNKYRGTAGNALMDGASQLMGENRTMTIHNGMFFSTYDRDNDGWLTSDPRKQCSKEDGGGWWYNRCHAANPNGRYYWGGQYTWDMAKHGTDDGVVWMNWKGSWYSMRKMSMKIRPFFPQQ
T1 sequence (P02679 27-453): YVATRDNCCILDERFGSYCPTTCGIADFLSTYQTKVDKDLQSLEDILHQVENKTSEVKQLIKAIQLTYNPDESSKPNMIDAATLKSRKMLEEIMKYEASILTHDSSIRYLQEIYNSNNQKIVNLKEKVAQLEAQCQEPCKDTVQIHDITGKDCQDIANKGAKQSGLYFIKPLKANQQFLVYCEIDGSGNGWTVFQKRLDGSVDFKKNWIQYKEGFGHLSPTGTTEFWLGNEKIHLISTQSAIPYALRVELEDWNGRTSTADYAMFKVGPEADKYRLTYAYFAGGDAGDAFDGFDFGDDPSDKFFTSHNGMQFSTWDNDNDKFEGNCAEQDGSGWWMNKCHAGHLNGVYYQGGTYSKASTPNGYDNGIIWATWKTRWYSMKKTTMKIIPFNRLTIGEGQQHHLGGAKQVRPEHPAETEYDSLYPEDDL


Key:
[1] = tested on: M1 protein-induced release of HBP from PMNs in human blood; conditions: M1 protein 1 μg/ml, 30 min 37° C., FIG. 2 and FIG. 5B
Description: (§1) HBP release. 100 μl human blood were diluted in PBS to a final volume of 1.0 ml and incubated with various PMNs-activating components for 30 min at 37° C. Cells were centrifuged (300×g for 15 min) and the supernatant was analyzed by sandwich ELISA. In order to quantify the total amount of HBP in blood, cells were lysed with 0.02% (v/v) Triton X-100, and pelleted as described above.

[2] = tested on: mice of the C57BL/6 strain; conditions: for breathing of mice: thirty minutes after i.v. M1 protein 15 μg/animal, alone or plus peptide 400 μg/animal; for lung damage after injection of the protein alone, scanning electron microscopy / lung lesions after injection of the protein alone, light microscopy: i.v., M1 protein 15 μg/animal, 30 min
PMNs in human blood = assay: HBP release in human blood by streptococcal and other PMN-activating components; format: cell-based; conditions: for release of HBP: added to human blood, HBP in supernatant by ELISA, FIG. 1
Description: as §1

fibrinogen [3] = target: T1, fibrinogen; assay: Fibrinogen binding on Western blot; conditions: literature statement, demonstrated in the applicant's blot probed with fibrinogen 2 μg/ml
Description: SDS-polyacrylamide gel electrophoresis, Western blotting, and immunoprinting. Proteins were separated by 12.5% (w/v) polyacrylamide gel electrophoresis in the presence of 1% (w/v) SDS (Laemmli, 1970, Nature, 227, 680-685). Molecular weight markers were from Sigma Chemical Co. (St. Louis, Mo.). The resolved proteins were visualized by the silver stain technique. Proteins were also transferred onto nitrocellulose membranes for 30 min at 100 mA (Khyse-Andersen, 1984, J. Biochem. Biophys. Methods, 10, 203-209). The membranes were blocked with PBS containing 5% (w/v) dry milk powder and 0.05% (w/v) Tween-20, pH 7.4. Immunoprinting of the transferred proteins was done according to Towbin et al. (Towbin et al., 1979, Proc. Natl. Acad. Sci. USA, 76, 4350-4354). Polyclonal antibodies against M1 protein, diluted 1:50000 in the blocking buffer, was used. Bound antibodies were detected using a peroxidase-conjugated secondary antibodies against rabbit IgG (dilution 1:3000) followed by a chemiluminescence detection method. Alternatively, membranes were blocked, incubated with fibrinogen (2 μg/ml) followed by immunodetection with antibodies to fibrinogen (1:1000) and peroxidase-conjugated secondary antibodies against rabbit immunoglobulin (1:3000 diluted).

Fibrinogen [4] = target: T2, Fibrinogen (human, UniProt P02671 20-630; P02675 31-491; P02679 27-453); assay: ligand blot: SDS-PAGE, transfer to nitrocellulose, probed with fibrinogen, immunodetection of bound fibrinogen
T2 construct: also called human fibrinogen; purified fibrinogen

Molecule | effect on M1 protein-induced release of HBP [1] | release of HBP (PMNs in human blood; 30 min 37° C.) | other results
COc1cc2ncnc(Nc3cccc(Cl)c3)c2cc1OC [AG1478] | did not interfere with the secretion of HBP |  | 
O=C(O)CN(CCOCCOCCN(CC(=O)O)CC(=O)O)CC(=O)O [EGTA] | blocked HBP release |  | 
CN(C)CCCn1cc(C2=C(c3c[nH]c4ccccc34)C(=O)NC2=O)c2ccccc21 [GF109203] | did not interfere with the secretion of HBP |  | 
N=C(N)NCCC[C@H](NC(=O)[C@H](Cc1c[nH]cn1)NC(=O)CN)C(=O)N1CCC[C@H]1C(=O)O [Gly-His-Arg-Pro] (H-GHRP-OH) |  |  | breathing of mice [2]: clearly affected
O=S(=O)(NCCNC/C=C/c1ccc(Br)cc1)c1cccc2cnccc12 [H-89] | did not interfere with the secretion of HBP |  | 
COc1cccc(-c2cc(=O)c3ccccc3o2)c1N [PD98059] | did not interfere with the secretion of HBP |  | 
COc1ccc2c(c1)CC[C@@H]1[C@@H]2CC[C@]2(C)[C@@H](NCCCCCCN3C(=O)C=CC3=O)CC[C@@H]12 [U-73122] | did not interfere with the secretion of HBP |  | 
CSCC[C@H](NC=O)C(=O)N[C@@H](CC(C)C)C(=O)N[C@@H](Cc1ccccc1)C(=O)O [fMLP, formyl-methionyl-leucyl-phenylalanine] |  | evoked secretion of HBP | 
O=c1c(-c2ccc(O)cc2)coc2cc(O)cc(O)c12 [genistein] | blocked the release of HBP almost completely |  | 
M1 protein: recombinant M1 protein of Streptococcus pyogenes expressed in E. coli (SEQ ID NO: 1) |  |  | HBP stored in PMNs mobilized (PMNs in human blood; M1 protein final concentration 1 μg/ml, human whole blood, 30 min 37° C., FIG. 1A): about 63%; M1 protein concentration of maximal release of HBP from PMNs (PMNs in human blood; blood diluted 1/10, FIG. 3B): 1 µg/mL; ratio of lung area containing protein aggregates versus total lung area ([2]; M1 protein alone i.v., six lung sections per animal, electron microscopy): 90±2%; lung damage after injection of the protein alone, scanning electron microscopy [2]: severe leakage of erythrocytes; lung lesions after injection of the protein alone, light microscopy [2]: severe hemorrhage and tissue destruction; breathing of mice [2]: clearly affected; binding of fibrinogen (fibrinogen [3]): binds fibrinogen with high affinity
SpeB: streptococcal cysteine proteinase |  | did not induce HBP release | 
hyaluronic acid |  | did not induce HBP release | 
lipoteichoic acid |  | evoked secretion of HBP | 
pertussis toxin | none of the two components inhibited the release of HBP |  | 
Protein H (IgG-binding surface protein of S. pyogenes AP1), recombinant from E. coli (other, also called purified protein H) EGAKIDWQEEYKKLDEDNAKLVEVVETTSLENEKLKSENEENKKNLDKLSKENQGKLEKLELDYLKKLDHEHKEHQKEQQEQEERQKNQEQLERKYQREVEKRYQEQLQKQQQLETEKQISEASRKSLSRDLEASRAAKKDLEAEHQKLEAEHQKLKEDKQISDASRQGLSRDLEASRAAKKELEANHQKLEAEHQKLKEDKQISDASRQGLSRDLEASRAAKKELEANHQKLEAEAKALKEQLAKQAEELAKLRAGKASDSQTPDTKPGNKAVPGKGQAPQAGTKPNQNKAPMKETKRQLPST |  |  | binding result (Fibrinogen [4]): no binding
protein H: IgG-binding surface protein of AP1 bacteria, closely related to M1 protein, does not bind fibrinogen (protein) EGAKIDWQEEYKKLDEDNAKLVEVVETTSLENEKLKSENEENKKNLDKLSKENQGKLEKLELDYLKKLDHEHKEHQKEQQEQEERQKNQEQLERKYQREVEKRYQEQLQKQQQLETEKQISEASRKSLSRDLEASRAAKKDLEAEHQKLEAEHQKLKEDKQISDASRQGLSRDLEASRAAKKELEANHQKLEAEHQKLKEDKQISDASRQGLSRDLEASRAAKKELEANHQKLEAEAKALKEQLAKQAEELAKLRAGKASDSQTPDTKPGNKAVPGKGQAPQAGTKPNQNKAPMKETKRQLPST |  | Only minute amounts | lung damage after injection of the protein alone, scanning electron microscopy [2]: did neither cause serious bleeding; lung lesions after injection of the protein alone, light microscopy [2]: no hemorrhage; binding of fibrinogen (fibrinogen [3]): shows no interaction with fibrinogen
